Experiments:
[1] = tested on: alcohol-preferring (P) rats; experiment: Ethanol consumption, 24-hour-access two-bottle choice (10% ethanol vs. water), P rats; assay type: in vivo, rat; conditions: for decrease from baseline in alcohol consumption: Example 1, topiramate 10 mg/kg IP, ondansetron 0.001 mg/kg IP, test session, mean±SE of 17 rats; for decrease from baseline in alcohol consumption / preference for ethanol over water, average on test sessions / preference for ethanol over water, baseline change: P rats; for ethanol consumption vs baseline: Example 4, P rats N=18, topiramate 10 mg/kg, ondansetron 0.001 mg/kg, FIG. 4A; for preference for ethanol over water, average on test sessions: baseline average preference 0.6±0.2; for preference for ethanol over water, baseline change: test sessions
Protocol: Combined effect of topiramate (10 mg/kg, IP) and ondansetron (0.001 mg/kg, IP) on alcohol consumption in alcohol-preferring (P) rats. […] Data were plotted across 7 consecutive sessions, which include a 3-day baseline period, the test session in which the ondansetron and/or topiramate injection was administered, and the 3 sessions that followed the test session. […]
(§1) The effects of ondansetron and topiramate were examined for their ability to modulate two important aspects of alcohol abuse: total consumption and relapse. Total consumption was examined under a 24-hour-access two-bottle choice procedure wherein rats had unlimited access to alcohol solutions (10%) and water. Alcohol relapse was assessed in alcohol-dependent rats by examining alcohol consumption following an extended abstinence period. Specifically, in alcohol-dependent rats, when alcohol is reintroduced following an extended abstinence period, rats show marked increases in consumption as compared with levels of consumption prior to abstinence.
(§2) 1) The combination of topiramate and ondansetron reduces ethanol consumption in rats: Total consumption was examined under a 24-hour-access two-bottle choice procedure (10% ethanol vs. water). To induce drinking, both Wistar and P rats were trained onto ethanol using a standard sucrose fading procedure. […] At baseline, the average preference was 0.6±0.2, and the average values observed on test sessions with topiramate alone, ondansetron alone, the combination of topiramate and ondansetron, and vehicle were 0.51±0.2 (−9±4% baseline change), 0.58±0.0 (1±2%), 0.51±0.03 (−11±4%), and 0.59±0.03 (1%±0), respectively. […] At baseline, the average preference ratio was 0.30±0.03 and the average values observed on test sessions with topiramate alone, ondansetron alone, the combination of topiramate and ondansetron, and vehicle were 0.25±0.03 (−6±7% baseline change), 0.26±0.04 (2±2%), 0.31±0.02 (1±3%; P<0.05), and 0.3±0.03 (6%±4), respectively.

[2] = tested on: alcohol-preferring (P) rats; experiment: Alcohol deprivation effect (ADE, relapse model), P rats; assay type: in vivo, rat; conditions: for alcohol deprivation effect (ADE), consumption 24 hours after ethanol reinstated: Example 4, chronic daily treatment from day 8 of 15-day withdrawal, topiramate 10 mg/kg, ondansetron 0.001 mg/kg, FIG. 5A
Protocol: as §1

Wistar rats = experiment: Ethanol consumption, 24-hour-access two-bottle choice, Wistar rats; assay type: in vivo, rat; conditions: for alcohol consumption, change from baseline: Example 3, ondansetron 0.001 or 0.01 mg/kg with topiramate 10 mg/kg IP, 4 to 5 rats, FIG. 3; for alcohol consumption, change from baseline / preference ratio for ethanol over water, average on test sessions / preference for ethanol over water, baseline change: Wistar rats; for ethanol consumption: Example 4, Wistar rats n=5, preliminary, FIG. 4B; for preference ratio for ethanol over water, average on test sessions: baseline average 0.30±0.03; for preference for ethanol over water, baseline change: test sessions
Protocol: Combined effect of topiramate (5 and 10 mg/kg, IP) and ondansetron (0.001 and 0.01 mg/kg, IP) on alcohol consumption in Wistar rats. […] The experiments utilized four to five rats per condition. Data are expressed as change from baseline levels of alcohol consumption.
as §1, §2

early-onset alcoholics [3] = conditions: ondansetron in early-onset alcoholics
early-onset alcoholics [4] = conditions: cited from earlier work
[5] = tested on: alcohol-dependent subjects; experiment: Topiramate alone in alcohol dependence (comparison data from a different study); assay type: in vivo, human
[6] = tested on: alcohol-dependent subjects; conditions: topiramate alone, cited from earlier work

Cc1nccn1CC1CCc2c(c3ccccc3n2C)C1=O (stereo not drawn) [Ondansetron, 9-methyl-3-[(2-methyl-1H-imidazol-1-yl)methyl]-1,2,3,9-tetrahydrocarbazol-4-one]
decrease from baseline in alcohol consumption [1]: 1%±7%
ethanol consumption vs baseline [1]: did not impact ethanol consumption on its own
preference for ethanol over water, average on test sessions [1]: 0.58±0.0
preference for ethanol over water, baseline change [1]: 1±2%
alcohol deprivation effect (ADE), consumption 24 hours after ethanol reinstated [2]: blocked the ADE
alcohol consumption, change from baseline (Wistar rats): lack of modulation
ethanol consumption (Wistar rats): no affect was observed on consumption
preference ratio for ethanol over water, average on test sessions (Wistar rats): 0.26±0.04
preference for ethanol over water, baseline change (Wistar rats): 2±2%
Cohen's effect size: drinks per day (early-onset alcoholics [3]): −0.55
Cohen's effect size: drinks per drinking day (early-onset alcoholics [3]): −0.48
Cohen's effect size: percentage of days abstinent (early-onset alcoholics [3]): +0.27
report of weight loss (early-onset alcoholics [4]; individuals taking ondansetron alone): no appreciable report of weight loss
paresthesia (early-onset alcoholics [4]; ondansetron administered alone): not associated with paresthesia
mean reduction in drinks per day (early-onset alcoholics [4]; ondansetron alone in early-onset alcoholics): −3.28 drinks per day

CC1(C)O[C@@H]2[C@@H](CO[C@@]3(COS(N)(=O)=O)OC(C)(C)O[C@@H]23)O1 [Topiramate, 2,3:4,5-Bis-O-(1-methylethylidene)-beta-D-fructopyranose sulfamate]
decrease from baseline in alcohol consumption [1]: 13±5%
ethanol consumption vs baseline [1]: significant decrease from baseline ethanol consumption
preference for ethanol over water, average on test sessions [1]: 0.51±0.2
preference for ethanol over water, baseline change [1]: −9±4%
alcohol consumption following a two-week abstinence period (alcohol deprivation effect) ([2]; Example 2, topiramate 10 mg/kg IP, ondansetron 0.001 mg/kg IP, 2 to 3 rats, FIG. 2): attenuated the alcohol deprivation effect
alcohol deprivation effect (ADE), consumption 24 hours after ethanol reinstated [2]: blocked the ADE
alcohol consumption, change from baseline (Wistar rats): lack of modulation
ethanol consumption (Wistar rats): no affect was observed on consumption
preference ratio for ethanol over water, average on test sessions (Wistar rats): 0.25±0.03
preference for ethanol over water, baseline change (Wistar rats): −6±7%
Cohen's effect size: drinks per day [5]: −0.80
Cohen's effect size: drinks per drinking day [5]: −0.63
Cohen's effect size: percentage of days abstinent [5]: +0.73
adverse event rate: dizziness ([6]; different study): 28%
adverse event rate: paresthesia ([6]; different study): 54%
adverse event rate: slowing in psychomotor performance ([6]; different study): 27%
individuals reporting weight loss [6]: 19.7%
frequency of paresthesia ([6]; share of individuals): over 50%

From US20100041689A1, “Combined Effects of Topiramate and Ondansetron on Alcohol Consumption” (UNIVERSITY OF VIRGINIA PATENT FOUNDATION, priority 2006, published 2010)
